The CheMixHub viscosity set

Test: xn = mol fraction of the nth substance listed
Conditions: 101 kPa

CC1(C)S[C@@H]2[C@H](NC(=O)[C@H](N)c3ccc(O)cc3)C(=O)N2[C@H]1C(=O)O + O
viscosity [mPa·s]
Conditions	x1 = 9e-06	x1 = 1.8e-05	x1 = 2e-05	x1 = 3.2e-05	x1 = 3.6e-05	x1 = 5e-05	x1 = 6.8e-05
305.15 K	0.7741	0.7672	0.7642	0.7659	0.7708	0.7668	0.7686
310.15 K	0.7042	0.7023	0.6984	0.6991	0.7032	0.7014	0.7026
315.15 K	0.6458	0.6448	0.6386	0.6392	0.6469	0.6401	0.6421

CCCC(N)=O + O
298.15 K
Conditions	viscosity [mPa·s]
x1 = 0.00213	0.906
x1 = 0.0179	1.122
x1 = 0.0403	1.458
x1 = 0.04319	1.511

Cc1cccnc1 + O
298.15 K
Conditions	viscosity [mPa·s]
x1 = 0.02104	1.202
x1 = 0.04558	1.604
x1 = 0.2966	3.291
x1 = 0.6032	1.972

O=S(=O)([O-])[O-].O=S(=O)([O-])[O-].O=S(=O)([O-])[O-].[Al+3].[Al+3] + O
viscosity [mPa·s]
Conditions	298.15 K	323.15 K
x1 = 0.0016	1.12	0.597
x1 = 0.00272	–	0.734
x1 = 0.00291	–	0.743
x1 = 0.0032	1.36	0.695
x1 = 0.00384	–	0.839
x1 = 0.00482	–	0.96
x1 = 0.0053	1.93	0.925
x1 = 0.005932	–	1.074
x1 = 0.0071	2.44	1.15
x1 = 0.007109	–	1.242
x1 = 0.008241	–	1.431
x1 = 0.0087	3.17	1.44
x1 = 0.009379	–	1.686
x1 = 0.0105	4.21	1.82
x1 = 0.0106	–	1.989
x1 = 0.01197	–	2.398
x1 = 0.0123	5.95	2.41
x1 = 0.01327	–	2.919
x1 = 0.0145	8.96	3.43
x1 = 0.0147	–	3.571
x1 = 0.0154	10.5	3.96
x1 = 0.01608	–	4.31
x1 = 0.0161	11.8	4.33
x1 = 0.017	14.4	5.17
x1 = 0.01732	–	4.975
x1 = 0.0184	18	6.12
x1 = 0.01889	–	6.121
